Here are results for 23 compounds from patent US10227350B2 (Gilead Sciences, Inc., priority 2016, dated 2019).

This assay has as its target PI3Kβ (Homo sapiens (Human), UniProt P42338). Kind of assay: TR-FRET enzymatic activity assay, PI3Kβ. Type of assay: biochemical. The note with it: 2× Km ATP, 2 μM PIP2, 30 minutes at 25° C., read-out: IC50-PIP-Beta. In short, it runs like this:
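Purified recombinant heterodimeric PI3Kβ; PIP3 formation read by TR-FRET as competition with fluorescent tracer for GRP-1 PH domain binding. Compounds incubated 30 min at 25 °C.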
In general terms: TR-FRET usually uses a lanthanide donor and a delayed reading to cut background.

PI3Kβ, sequence (P42338 whole entry, the tested form may be a part): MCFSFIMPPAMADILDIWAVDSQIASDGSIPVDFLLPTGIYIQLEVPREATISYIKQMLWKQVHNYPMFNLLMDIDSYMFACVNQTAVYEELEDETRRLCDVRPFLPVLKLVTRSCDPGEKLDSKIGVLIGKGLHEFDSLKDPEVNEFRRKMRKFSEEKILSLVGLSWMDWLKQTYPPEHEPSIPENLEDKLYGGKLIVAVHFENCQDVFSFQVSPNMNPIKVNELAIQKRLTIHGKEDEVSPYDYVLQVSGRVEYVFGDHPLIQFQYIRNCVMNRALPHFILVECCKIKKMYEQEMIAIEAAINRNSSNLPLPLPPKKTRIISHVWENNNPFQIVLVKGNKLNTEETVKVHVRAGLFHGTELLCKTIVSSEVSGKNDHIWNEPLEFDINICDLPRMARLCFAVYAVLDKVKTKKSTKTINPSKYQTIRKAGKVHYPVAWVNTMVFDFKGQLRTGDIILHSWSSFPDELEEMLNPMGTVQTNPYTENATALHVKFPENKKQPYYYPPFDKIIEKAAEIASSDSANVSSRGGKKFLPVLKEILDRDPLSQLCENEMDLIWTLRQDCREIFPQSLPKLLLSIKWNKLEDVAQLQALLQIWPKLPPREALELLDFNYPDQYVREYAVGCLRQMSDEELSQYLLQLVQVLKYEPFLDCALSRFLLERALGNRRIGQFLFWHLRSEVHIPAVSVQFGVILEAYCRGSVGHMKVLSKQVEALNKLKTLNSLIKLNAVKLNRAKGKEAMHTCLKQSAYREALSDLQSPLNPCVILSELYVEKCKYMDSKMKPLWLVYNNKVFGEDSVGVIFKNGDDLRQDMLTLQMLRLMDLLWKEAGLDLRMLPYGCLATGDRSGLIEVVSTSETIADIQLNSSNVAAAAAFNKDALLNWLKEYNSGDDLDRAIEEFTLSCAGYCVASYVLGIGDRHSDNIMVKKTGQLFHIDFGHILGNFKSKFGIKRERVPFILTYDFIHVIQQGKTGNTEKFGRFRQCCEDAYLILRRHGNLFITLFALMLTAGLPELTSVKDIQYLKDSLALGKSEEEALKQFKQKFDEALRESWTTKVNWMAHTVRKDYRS
PI3Kβ, sequence (P27986 whole entry partner, the tested form may be a part): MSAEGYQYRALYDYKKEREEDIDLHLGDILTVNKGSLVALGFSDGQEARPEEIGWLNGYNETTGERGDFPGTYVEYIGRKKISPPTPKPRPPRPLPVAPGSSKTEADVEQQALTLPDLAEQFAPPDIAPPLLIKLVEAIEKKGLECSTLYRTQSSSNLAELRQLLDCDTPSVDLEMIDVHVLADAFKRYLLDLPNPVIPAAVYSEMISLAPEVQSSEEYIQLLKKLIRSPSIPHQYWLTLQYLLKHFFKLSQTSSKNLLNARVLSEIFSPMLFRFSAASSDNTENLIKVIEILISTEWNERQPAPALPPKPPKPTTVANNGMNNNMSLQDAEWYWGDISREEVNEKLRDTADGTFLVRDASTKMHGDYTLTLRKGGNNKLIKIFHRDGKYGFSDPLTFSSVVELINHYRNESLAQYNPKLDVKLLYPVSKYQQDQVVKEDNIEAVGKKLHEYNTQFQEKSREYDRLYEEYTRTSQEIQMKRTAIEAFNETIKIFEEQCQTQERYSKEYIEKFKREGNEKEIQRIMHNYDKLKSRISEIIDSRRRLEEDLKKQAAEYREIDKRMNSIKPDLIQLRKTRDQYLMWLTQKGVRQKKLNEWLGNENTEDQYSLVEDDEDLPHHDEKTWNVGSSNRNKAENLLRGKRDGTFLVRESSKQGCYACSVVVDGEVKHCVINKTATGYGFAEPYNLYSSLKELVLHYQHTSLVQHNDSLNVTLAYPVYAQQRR

On to `Nc1nccc(-c2cc(-c3nnc[nH]3)c3ncn(-c4ccnc5c(F)ccc(F)c45)c3c2)c1F` [Example 102, 4-[3-(5,8-difluoroquinolin-4-yl)-7-(4H-1,2,4-triazol-3-yl)benzimidazol-5-yl]-3-fluoropyridin-2-amine], for which the IC50 (in general, the concentration that inhibits the measured activity by half) was found to be 11 nM. On to `Cc1nc2c(C(N)=O)cc(-c3ccnc(C#N)c3)cc2n1-c1ccnc2c(F)ccc(F)c12` [Example 16, 6-(2-cyanopyridin-4-yl)-1-(5,8-difluoroquinolin-4-yl)-2-methylbenzimidazole-4-carboxamide], for which the IC50 worked out at 51 nM. The result for `Cc1nc2c(-c3nnc[nH]3)cc(-c3ccnc(N)c3F)cc2n1-c1c(Cl)cnc2c(F)cccc12` (single isomer, unassigned) [Example 107, 4-[3-(3-chloro-8-fluoroquinolin-4-yl)-2-methyl-7-(4H-1,2,4-triazol-3-yl)benzimidazol-5-yl]-3-fluoropyridin-2-amine] reads 29 nM; that for `Nc1cc(-c2cc(-c3nnc[nH]3)c3nc(CC4CC4)n(-c4ccnc5c(Cl)cccc45)c3c2)ccn1` [Example 73, 4-[3-(8-chloroquinolin-4-yl)-2-(cyclopropylmethyl)-7-(4H-1,2,4-triazol-3-yl)benzimidazol-5-yl]pyridin-2-amine], 8 nM. Regarding `Nc1cc(-c2cc(-c3nnc[nH]3)c3nc(C4CC4)n(-c4ccnc5c(Cl)cccc45)c3c2)ccn1` [Example 74, 4-[3-(8-chloroquinolin-4-yl)-2-cyclopropyl-7-(4H-1,2,4-triazol-3-yl)benzimidazol-5-yl]pyridin-2-amine], the IC50 is 29 nM. The result for `CC(C)c1nc2c(-c3nnc[nH]3)cc(-c3ccnc(N)c3)cc2n1-c1ccnc2c(Cl)ccc(F)c12` [Example 67, 4-[3-(8-chloro-5-fluoroquinolin-4-yl)-2-propan-2-yl-7-(4H-1,2,4-triazol-3-yl)benzimidazol-5-yl]pyridin-2-amine] reads 8 nM; that for `Nc1nccc(-c2cc(-c3nnc[nH]3)c3nc(C4CC4)n(-c4ccnc5c(Cl)ccc(F)c45)c3c2)c1F` [Example 85, 4-[3-(8-chloro-5-fluoroquinolin-4-yl)-2-cyclopropyl-7-(4H-1,2,4-triazol-3-yl)benzimidazol-5-yl]-3-fluoropyridin-2-amine], 3 nM. The result for `Cc1nc2c(-c3nnc[nH]3)cc(-c3ccnc(C#N)c3)cc2n1-c1ccnc2c(Cl)ccc(Cl)c12` (single isomer, unassigned) [Example 122, 4-(1-(5,8-dichloroquinolin-4-yl)-2-methyl-4-(4H-1,2,4-triazol-3-yl)-1H-benzo[d]imidazol-6-yl)picolinonitrile] reads 28 nM; that for `Cc1nc2c(C(N)=O)cc(-c3ncnc(N)c3C#N)cc2n1-c1ccnc2c(F)ccc(F)c12` [Example 157, 6-(6-amino-5-cyanopyrimidin-4-yl)-1-(5,8-difluoroquinolin-4-yl)-2-methyl-1H-benzo[d]imidazole-4-carboxamide], 460 nM; that for `Cc1nc2c(-c3nnc[nH]3)cc(-c3cc(F)ncc3F)cc2n1-c1ccnc2c(F)ccc(F)c12` [Example 41, 4-[6-(2,5-difluoropyridin-4-yl)-2-methyl-4-(4H-1,2,4-triazol-3-yl)benzimidazol-1-yl]-5,8-difluoroquinoline], 27 nM. The result for `Cc1nc2c(-c3nnc[nH]3)cc(-c3ccnc(C#N)c3)cc2n1-c1ccnc2c(F)ccc(F)c12` (single isomer, unassigned) [Example 114, 4-[3-(5,8-difluoroquinolin-4-yl)-2-methyl-7-(4H-1,2,4-triazol-3-yl)benzimidazol-5-yl]pyridine-2-carbonitrile] reads 560 nM. On to `Cc1nc2c(-c3nnc[nH]3)cc(-c3ccnc(N)c3F)cc2n1-c1ccnc2cc(F)cc(F)c12` [Example 160, 4-(1-(5,7-difluoroquinolin-4-yl)-2-methyl-4-(4H-1,2,4-triazol-3-yl)-1H-benzo[d]imidazol-6-yl)-3-fluoropyridin-2-amine], for which the IC50 was 7 nM. Consider `Nc1nccc(-c2cc(-c3nnc[nH]3)c3nc(C4CC4)n(-c4ccnc5c(Cl)cccc45)c3c2)c1F` [Example 79, 4-[3-(8-chloroquinolin-4-yl)-2-cyclopropyl-7-(4H-1,2,4-triazol-3-yl)benzimidazol-5-yl]-3-fluoropyridin-2-amine], for which the concentration for half-maximal inhibition (IC50) stood at 8 nM. The result for `Cc1nnc(-c2cc(-c3ccnc(N)c3F)cc3c2nc(C)n3-c2ccnc3c(Cl)ccc(F)c23)[nH]1` (single isomer, unassigned) [Example 112, 4-[3-(8-chloro-5-fluoroquinolin-4-yl)-2-methyl-7-(5-methyl-4H-1,2,4-triazol-3-yl)benzimidazol-5-yl]-3-fluoropyridin-2-amine] reads 5 nM. The result for `Cc1nc2c(-c3nnc[nH]3)cc(-c3ccnc(N)c3Cl)cc2n1-c1ccnc2c(F)ccc(F)c12` [Example 91, 3-chloro-4-[3-(5,8-difluoroquinolin-4-yl)-2-methyl-7-(4H-1,2,4-triazol-3-yl)benzimidazol-5-yl]pyridin-2-amine] reads 19 nM; that for `Nc1nccc(-c2cc(-c3nnc[nH]3)c3nc(CC4CC4)n(-c4ccnc5c(F)ccc(F)c45)c3c2)c1F` [Example 96, 4-[2-(cyclopropylmethyl)-3-(5,8-difluoroquinolin-4-yl)-7-(4H-1,2,4-triazol-3-yl)benzimidazol-5-yl]-3-fluoropyridin-2-amine], 7 nM. The result for `Cc1nc2c(-c3nnc[nH]3)cc(-c3ccnc(N)c3F)cc2n1-c1ccnc2c(F)ccc(Cl)c12` [Example 99, 4-[3-(5-chloro-8-fluoroquinolin-4-yl)-2-methyl-7-(4H-1,2,4-triazol-3-yl)benzimidazol-5-yl]-3-fluoropyridin-2-amine] reads 29 nM; that for `Cc1nc2c(-c3nnc[nH]3)cc(-c3ccnc(N)c3)cc2n1-c1ccnc2c(Cl)cccc12` [Example 58, 4-(1-(8-chloroquinolin-4-yl)-2-methyl-4-(4H-1,2,4-triazol-3-yl)-1H-benzo[d]imidazol-6-yl)pyridin-2-amine], 10 nM; that for `Cc1nc2c(-c3nnc[nH]3)cc(-c3cc(N)ncn3)cc2n1-c1ccnc2c(Cl)cccc12` [Example 59, 6-[3-(8-chloroquinolin-4-yl)-2-methyl-7-(4H-1,2,4-triazol-3-yl)benzimidazol-5-yl]pyrimidin-4-amine], 270 nM. For `Cc1nnc(-c2cc(-c3ccnc(N)c3F)cc3c2nc(C)n3-c2ccnc3c(F)ccc(F)c23)[nH]1` [Example 97, 4-[3-(5,8-difluoroquinolin-4-yl)-2-methyl-7-(5-methyl-4H-1,2,4-triazol-3-yl)benzimidazol-5-yl-]3-fluoropyridin-2-amine], the IC50 turned out to be 31 nM. The result for `Nc1cc(-c2cc(-c3nnc[nH]3)c3nc(C4CC4)n(-c4ccnc5c(F)ccc(F)c45)c3c2)ccn1` [Example 69, 4-[2-cyclopropyl-3-(5,8-difluoroquinolin-4-yl)-7-(4H-1,2,4-triazol-3-yl)benzimidazol-5-yl]pyridin-2-amine] reads 47 nM; that for `Cc1nc2c(C(N)=O)cc(-c3ccnc(N)n3)cc2n1-c1ccnc2c(Cl)cccc12` [Example 19, 6-(2-aminopyrimidin-4-yl)-1-(8-chloroquinolin-4-yl)-2-methylbenzimidazole-4-carboxamide], 12 nM; that for `Cc1nc2c(C(N)=O)cc(-c3cc(N)ncn3)cc2n1-c1ccnc2c(Cl)cccc12` [Example 21, 6-(6-aminopyrimidin-4-yl)-1-(8-chloroquinolin-4-yl)-2-methylbenzimidazole-4-carboxamide], 1300 nM.
